Measured values published in ChEMBL document CHEMBL3603755 (J Med Chem, 2015).
pIC50: −log10 of the molar value. Each block holds one compound with its values, some of them ahead of it. Calls of active or inactive are those of the source. The rule behind the calls is not given here.

Tests used:
[1] = Inhibition of human SULU1
CAPAN-1 = assay: Antitumor activity against human Capan1 cells xenografted in athymic nu/nu mouse assessed as tumor growth inhibition at 50 mg/kg administered for 5 days; format: functional, organism-based

SMILES: NC(=O)c1cccc2c1C(=O)N(C1CCN(C3CCC(F)(F)CC3)CC1)C2
pIC50 (MCF7): < 5.00

pIC50 [1]: < 5.00
SMILES: NC(=O)c1cc(F)cc2c1C(=O)N(C1CCN(C3CCC(F)(F)CC3)CC1)C2

SMILES: Cn1nnc2c(C(N)=O)ncn2c1=O
TGI (CAPAN-1): inactive
